Earlier results in US8592434B2, “Mucoadhesive buccal tablets for the treatment of orofacial herpes” (BioAlliance Pharma SA, priority 2009, dated 2013).

Details: oral treatment, irrespective of the dosage and duration

Row | SMILES | Headaches, treated patients
1 | CC(=O)OCC(CCn1cnc2cnc(N)nc21)COC(C)=O [famciclovir, diacetyl ester of 6-deoxy pencyclovir] | about 10%
2 | CC(C)[C@H](N)C(=O)OCCOCn1cnc2c(=O)[nH]c(N)nc21 [valacyclovir, L-valine ester of acyclovir] | about 10%
